Measured values reported in ChEMBL document CHEMBL1765088, “5-Benzamidoisoquinolin-1-ones and 5-(ω-carboxyalkyl)isoquinolin-1-ones as isoform-selective inhibitors of poly(ADP-ribose) polymerase 2 (PARP-2)” (J Med Chem, 2011).
Where “and” joins values, the source holds several entries; their conditions need not be identical. Equal entries are not always repeated. Values belong to the compound of their own block, whether it stands above or below them.

Tests used:
[1] = target: Poly [ADP-ribose] polymerase 2 (Mus musculus, UniProt O88554); test: Inhibition of recombinant full length mouse PARP-2 after 10 mins using [3H]NAD+ by solution-phase assay
Poly [ADP-ribose] polymerase 2, sequence (O88554 whole entry): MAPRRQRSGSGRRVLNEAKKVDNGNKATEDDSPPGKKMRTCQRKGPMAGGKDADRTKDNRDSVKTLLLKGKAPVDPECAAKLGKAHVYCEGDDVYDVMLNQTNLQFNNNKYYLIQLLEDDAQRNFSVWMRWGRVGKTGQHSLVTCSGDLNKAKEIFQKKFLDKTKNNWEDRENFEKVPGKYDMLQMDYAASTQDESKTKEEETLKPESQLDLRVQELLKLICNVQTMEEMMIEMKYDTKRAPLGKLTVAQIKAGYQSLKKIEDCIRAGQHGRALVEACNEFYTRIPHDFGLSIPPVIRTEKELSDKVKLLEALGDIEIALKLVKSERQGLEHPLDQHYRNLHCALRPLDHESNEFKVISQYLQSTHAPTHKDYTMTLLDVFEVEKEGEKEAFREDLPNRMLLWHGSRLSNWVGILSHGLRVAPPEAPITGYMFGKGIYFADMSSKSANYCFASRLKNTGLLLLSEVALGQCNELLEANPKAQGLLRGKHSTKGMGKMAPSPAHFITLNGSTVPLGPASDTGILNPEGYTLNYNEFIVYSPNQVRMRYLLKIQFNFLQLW

HT-29 = test: Growth inhibition of human HT-29 cells after 7 days by MTS assay; conditions: HT-29, 168 h
MDA-MB-231 = test: Growth inhibition of human MDA-MB-231 cells after 7 days by MTS assay; conditions: MDA-MB-231, 168 h
LNCaP = test: Growth inhibition of human LNCAP cells after 7 days by MTS assay; conditions: 168 h
[2] = Growth inhibition of human FEK4 cells after 7 days by MTS assay; conditions: FEK4, 168 h
[3] = target: PARP (mixed cellular PARPs); test: Inhibition of mixed PARPs from broken cell nuclei by broken nuclei assay
[4] = target: Poly [ADP-ribose] polymerase 1 (Homo sapiens, UniProt P09874); test: Inhibition of full length human PARP-1 after 10 mins by FlashPlate scintillation proximity assay
Poly [ADP-ribose] polymerase 1, sequence (P09874 whole entry): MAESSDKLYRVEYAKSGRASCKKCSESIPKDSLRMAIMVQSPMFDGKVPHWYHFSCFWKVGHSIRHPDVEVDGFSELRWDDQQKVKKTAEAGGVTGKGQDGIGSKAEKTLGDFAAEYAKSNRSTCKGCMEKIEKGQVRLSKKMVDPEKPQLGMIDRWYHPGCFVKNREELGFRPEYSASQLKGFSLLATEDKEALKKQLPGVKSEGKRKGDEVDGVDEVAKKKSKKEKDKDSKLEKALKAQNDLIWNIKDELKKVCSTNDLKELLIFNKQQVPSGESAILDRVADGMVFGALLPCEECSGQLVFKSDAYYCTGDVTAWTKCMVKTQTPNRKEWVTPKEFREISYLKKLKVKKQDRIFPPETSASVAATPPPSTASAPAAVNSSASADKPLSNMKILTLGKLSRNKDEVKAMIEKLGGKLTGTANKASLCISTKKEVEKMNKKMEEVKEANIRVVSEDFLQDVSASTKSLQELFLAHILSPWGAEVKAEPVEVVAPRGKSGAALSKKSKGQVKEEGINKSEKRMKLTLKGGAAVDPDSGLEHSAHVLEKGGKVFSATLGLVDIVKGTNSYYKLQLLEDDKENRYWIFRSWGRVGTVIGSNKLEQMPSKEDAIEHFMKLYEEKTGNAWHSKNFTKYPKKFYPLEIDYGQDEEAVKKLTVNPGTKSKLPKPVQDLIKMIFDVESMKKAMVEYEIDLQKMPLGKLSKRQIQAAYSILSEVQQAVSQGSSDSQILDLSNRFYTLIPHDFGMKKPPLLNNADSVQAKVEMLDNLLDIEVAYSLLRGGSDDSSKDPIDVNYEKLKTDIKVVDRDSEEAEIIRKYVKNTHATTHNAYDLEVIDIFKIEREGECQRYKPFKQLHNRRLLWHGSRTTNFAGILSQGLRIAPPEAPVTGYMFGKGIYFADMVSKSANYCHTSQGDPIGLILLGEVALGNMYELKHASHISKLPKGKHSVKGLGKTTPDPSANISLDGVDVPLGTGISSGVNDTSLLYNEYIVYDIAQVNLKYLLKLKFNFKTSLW

[5] = target: PARP (mixed cellular PARPs); test: Inhibition of mixed PARPs from broken cell nuclei by broken nuclei assay; remark: listed apart in the source
[6] = Selectivity for recombinant full length mouse PARP-2 over full length human PARP-1
CT26 = test: Inhibition of mouse CT26 cell proliferation at 1 mM; assay type: functional
[7] = Selectivity ratio, ratio of IC50 for full length human PARP-1 to IC50 for recombinant full length mouse PARP-2

IC50 (HT-29): > 200 µM
IC50 (MDA-MB-231): 139 µM
IC50 (LNCaP): 98 µM
IC50 [1]: 1.5 µM
SMILES: O=C(Nc1cccc2c(=O)[nH]ccc12)c1ccccc1
IC50 [2]: > 200 µM

IC50 [3]: < 13 µM
IC50 [4]: > 25 µM
IC50 [5]: < 13 µM
IC50 [1]: > 25 µM
SMILES: O=C(O)c1cccc2c(=O)[nH]ccc12

IC50 [1]: 5.6 µM
SMILES: Cc1ccccc1C(=O)Nc1cccc2c(=O)[nH]ccc12

IC50 [1]: 0.55 µM
SMILES: O=C(O)CNc1cccc2c(=O)[nH]ccc12

IC50 (HT-29): > 200 µM
IC50 (MDA-MB-231): > 200 µM
IC50 [4]: > 80 µM
IC50 (LNCaP): > 200 µM
IC50 [1]: 27.9 µM
SMILES: O=C(Nc1cccc2c(=O)[nH]ccc12)C1CCCCC1
IC50 [2]: > 200 µM

IC50 [1]: 7 µM
SMILES: O=C(Nc1cccc2c(=O)[nH]ccc12)c1cccs1

IC50 (HT-29): > 200 µM
IC50 (MDA-MB-231): > 200 µM
IC50 [4]: > 100 µM
IC50 (LNCaP): > 200 µM
Ratio IC50 [7]: > 3.4
IC50 [1]: 29 µM
SMILES: CC(C)(C)C(=O)Nc1cccc2c(=O)[nH]ccc12
IC50 [2]: > 200 µM

IC50 [1]: 6.5 µM
SMILES: Cc1ccc(C(=O)Nc2cccc3c(=O)[nH]ccc23)cc1

IC50 [1]: 1.3 µM
SMILES: O=C(Nc1cccc2c(=O)[nH]ccc12)c1ccc(I)cc1

IC50 [1]: 3.9 µM
SMILES: O=C(Nc1cccc2c(=O)[nH]ccc12)c1ccc(Cl)cc1

Continued, compound first:

SMILES: NC(=O)c1cccc2nc(-c3ccc(Cl)cc3)cnc12
IC50 [1]: 0.09 µM

SMILES: O=C(Nc1cccc2c(=O)[nH]ccc12)c1ccc(C(F)(F)F)cc1
IC50 [1]: 3.3 µM

SMILES: O=c1[nH]c(CCCCN2CC=C(c3ccc(F)cc3)CC2)nc2c(Cl)cccc12
IC50 [1]: 0.5 µM

SMILES: O=C(Nc1cccc2c(=O)[nH]ccc12)c1ccccc1I
IC50 [1]: 3.2 µM

SMILES: Nc1cccc2c(=O)n(CCC(=O)O)ccc12
IC50 [1]: 1.6 µM

SMILES: O=C(O)CCc1cccc2c(=O)[nH]ccc12
IC50 [1]: 3 µM

SMILES: O=C(Oc1cccc2c1CCNC2=O)c1ccccc1
Ratio [6]: 16

SMILES: N#Cc1ccc(-c2cnc3cccc(C(N)=O)c3n2)cc1
Ratio [6]: 12

SMILES: Nc1cccc2c(=O)[nH]ccc12
inhibition at 1000 µM (CT26): 40%
IC50 (HT-29): > 200 µM
IC50 (MDA-MB-231): 170 µM
IC50 [4]: 0.94 µM and 1 µM
IC50 (LNCaP): > 200 µM
Ratio IC50 [7]: 0.9
IC50 [2]: > 200 µM
IC50 [1]: 1.05 µM and 1 µM

SMILES: O=C(Oc1cccc2c(O)nccc12)c1ccccc1
Ratio IC50 [7]: 2.75
Ratio [6]: 60

SMILES: O=C(Nc1cccc2c(=O)[nH]ccc12)c1ccc(F)cc1
IC50 [1]: 3.6 µM

SMILES: O=C(Oc1cccc2c(=O)[nH]ccc12)c1ccccc1
IC50 [4]: 4.1 µM
IC50 [1]: 1.5 µM

SMILES: O=C(Nc1cccc2c(=O)[nH]ccc12)C12CC3CC(CC(C3)C1)C2
IC50 (HT-29): > 200 µM
IC50 (MDA-MB-231): > 200 µM
IC50 [4]: > 50 µM
IC50 (LNCaP): 42 µM
IC50 [2]: > 200 µM
IC50 [1]: 19.9 µM

SMILES: O=C(Nc1cccc2c(=O)[nH]ccc12)c1ccc([N+](=O)[O-])cc1
IC50 [1]: 1.6 µM

SMILES: Cc1cc2c(NC(=O)c3ccccc3)cccc2c(=O)[nH]1
IC50 [1]: 6.3 µM

SMILES: O=C(O)/C=C/c1cccc2c(=O)[nH]ccc12
IC50 [3]: < 11 µM
IC50 [1]: 4.7 µM
